Among the test systems are EKVX NSCLC; SW-620 colon; MDA-MB-231 breast; SR leukemia; HOP-92 NSCLC; MDA-N; MDA-MB-435; NCI-H23 lung; MOLT-4 leukemia; HCC-2998 colon.
What all share (assay): inhibition of tumour cell growth, NCI panel, 48 h

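Step 1: Grow cells in 96-well plates. Step 2: Expose to compound for 48 hours at 5 concentrations. Step 3: Interpolate endpoints linearly; if unreached, use highest concentration. Here, GI50 denotes the concentration required for 50% inhibition of growth. Definition used: TGI = concentration required for complete inhibition of growth.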 Some results are limits rather than exact numbers.

Consider `O=S1(=O)C(c2ccccc2)C(N2CCCCC2)C1C1CC2c3ccccc3C1c1ccccc12` (stereo not given), for which the TGI with EKVX NSCLC, with SW-620 colon, with MDA-MB-231 breast, in the test with SR leukemia, in the test with HOP-92 NSCLC and in the test with MDA-N was above 100 µM throughout. For the same compound, the TGI in the test on MDA-MB-435, in the test with NCI-H23 lung and with MOLT-4 leukemia was above 100 µM each time.
Turning to `O=C(C[C@H](NC(=O)OCc1ccccc1)C(=O)NC1Cc2ccccc2OC1=O)OCc1ccccc1` (stereo not given in full), the TGI in the test with HCC-2998 colon is 66.5 µM; in the test on MDA-MB-231 breast, 71.6 µM; with SR leukemia it was above 100 µM; in the test on HOP-92 NSCLC it was above 100 µM; in the test on MDA-N, above 100 µM; with MDA-MB-435, above 100 µM. For the same compound, the TGI in the test on NCI-H23 lung and in the test on MOLT-4 leukemia was above 100 µM each time.
As for `CCN(CC)CCCC(C)Nc1ccnc2cc3ccccc3cc12` (stereo not given), the TGI in the test with EKVX NSCLC was above 100 µM; with SW-620 colon it was above 100 µM; in the test with MDA-MB-231 breast it was above 100 µM; with SR leukemia, above 100 µM; in the test with HOP-92 NSCLC it was above 100 µM; with MDA-MB-435, 24.2 µM. Moreover, the TGI was 96.7 µM in the test with NCI-H23 lung and above 100 µM in the test on MOLT-4 leukemia.
Regarding `Cc1cccc2cc3c(ccc4ccccc43)c[n+]12`, the TGI was 42.7 µM in the test with HCC-2998 colon; above 100 µM in the test with EKVX NSCLC; above 100 µM in the test on SW-620 colon; above 100 µM in the test on MDA-MB-231 breast; above 100 µM in the test with SR leukemia; above 100 µM with MDA-N. Also, the TGI in the test with MDA-MB-435 is above 100 µM; with NCI-H23 lung, 58 µM; with MOLT-4 leukemia, above 100 µM.
Regarding `Nc1ccc(-c2cssc2=S)cc1`, the TGI with HCC-2998 colon, in the test on EKVX NSCLC, in the test on SW-620 colon, in the test on MDA-MB-231 breast, with HOP-92 NSCLC and with MDA-N was above 100 µM throughout. Also, the TGI in the test with MDA-MB-435 and with MOLT-4 leukemia was above 100 µM each time.
Consider `CN(C)c1nc(N(C)C)nc(N(C)CN(C)c2ccc(Cl)cc2)n1`, for which the TGI with SW-620 colon, in the test with NCI-H23 lung and in the test on MOLT-4 leukemia was above 100 µM each time.
Consider `CC(C)CCC[C@@H](C)[C@H]1CC[C@H]2[C@@H]3CC[C@H]4C[C@H](N)CC[C@]4(C)[C@H]3CC[C@]12C`, for which the TGI with HCC-2998 colon is 64 µM; in the test with EKVX NSCLC it was 43.4 µM; in the test on SW-620 colon it was above 100 µM; in the test on MDA-MB-231 breast, 8.22 µM; in the test with HOP-92 NSCLC, 34.6 µM; in the test with MDA-N, above 100 µM. Also, the TGI in the test with MDA-MB-435, with NCI-H23 lung and in the test with MOLT-4 leukemia was above 100 µM throughout.
`O=c1cc(-c2ccc(O)cc2)n(C2CC2)c2ccccc12`: the TGI in the test on SW-620 colon was 26.7 µM; in the test with MDA-MB-231 breast it was 22.2 µM; with SR leukemia it was above 100 µM; with HOP-92 NSCLC, 19.8 µM; with MDA-N it was 26.2 µM; in the test with MDA-MB-435 it was 17.5 µM. For the same compound, the TGI was 26.6 µM in the test on NCI-H23 lung and above 100 µM in the test with MOLT-4 leukemia.
For `O=C(O)c1cc(=O)[nH]c(SCc2ccccc2)n1`, the TGI with EKVX NSCLC, with SW-620 colon, in the test on MDA-MB-231 breast, in the test with SR leukemia, in the test with HOP-92 NSCLC and in the test with MDA-N was above 100 µM each time. Also, the TGI with MDA-MB-435, with NCI-H23 lung and in the test on MOLT-4 leukemia was above 100 µM throughout.
Consider `Cc1nc2c(n1C)C(=O)c1nc(CBr)[nH]c(=O)c1C2=O`, for which the TGI in the test with EKVX NSCLC is 54.9 µM; with SW-620 colon it was above 100 µM; with HOP-92 NSCLC, above 100 µM; in the test with NCI-H23 lung, above 100 µM; with MOLT-4 leukemia, above 100 µM.
Take `C=CCc1cc(-c2cc(CC=C)c(O)c(CNC)c2)cc(CNC)c1O`: the TGI in the test with HCC-2998 colon was 30 µM; in the test with SW-620 colon it was 31.7 µM; in the test with HOP-92 NSCLC it was 23.3 µM; with NCI-H23 lung, 29.6 µM; in the test on MOLT-4 leukemia it was 31.1 µM.
For the compound `CO/C=C(/C(=O)OC)c1ccccc1[C@@H]1CC1c1cccc(F)c1` (stereo not given in full), the TGI in the test with HCC-2998 colon was 94.8 µM; in the test with EKVX NSCLC, 88.1 µM; with MDA-MB-231 breast it was above 100 µM; with SR leukemia, above 100 µM; with HOP-92 NSCLC, above 100 µM; with MDA-N it was 91.2 µM. For the same compound, the TGI in the test on MDA-MB-435 is 44 µM; with NCI-H23 lung, above 100 µM; in the test with MOLT-4 leukemia it was above 100 µM.
As for `CSc1nc(NC2OCC(OC(C)=O)C(OC(C)=O)C2OC(C)=O)c(N=C(C)C(C)=O)c(=O)[nH]1` (stereo not given), the TGI in the test with EKVX NSCLC, in the test on SW-620 colon, with SR leukemia, in the test on HOP-92 NSCLC, with NCI-H23 lung and in the test on MOLT-4 leukemia was above 100 µM each time.
In the case of `COc1ccc(C2CC(c3cccc(Nc4ccncc4)c3)=NN2c2ccc(Cl)cc2)cc1` (stereo not given), the GI50 was 1.74 µM with HCC-2998 colon; 1.66 µM with EKVX NSCLC; 1.61 µM with SW-620 colon; 1.33 µM in the test with MDA-MB-231 breast; 1.35 µM with SR leukemia; 1.12 µM in the test on HOP-92 NSCLC. The GI50 in the test with MDA-MB-435 is 1.63 µM; in the test with NCI-H23 lung it was 1.81 µM; in the test with MOLT-4 leukemia, 1.81 µM. Also, the TGI in the test with HCC-2998 colon came to 3.22 µM; in the test on EKVX NSCLC, 3.27 µM; in the test with SW-620 colon it was 3.19 µM; with MDA-MB-231 breast, 2.65 µM; in the test with SR leukemia it was 3.38 µM; in the test with HOP-92 NSCLC, 2.44 µM. Moreover, the TGI in the test with MDA-MB-435 is 3.05 µM; in the test with NCI-H23 lung, 3.43 µM; with MOLT-4 leukemia, 4.1 µM.
For the compound `N#Cc1c(NC(=S)Nc2ccc(Cl)cc2)sc2c1CCCC2`, the TGI was above 100 µM with HCC-2998 colon; above 100 µM in the test on EKVX NSCLC; above 100 µM in the test on SW-620 colon; above 100 µM in the test on MDA-MB-231 breast; 89.1 µM in the test on SR leukemia; above 100 µM in the test with MDA-N. The TGI in the test on MDA-MB-435 is above 100 µM; with NCI-H23 lung, above 100 µM; in the test on MOLT-4 leukemia, 33.8 µM.
As for `N#Cc1c2c(c(Nc3cccc(C(F)(F)F)c3)n3c1nc1ccccc13)CCC2`, the TGI in the test with EKVX NSCLC, with SW-620 colon, in the test on MDA-MB-231 breast, in the test with HOP-92 NSCLC, in the test on MDA-MB-435 and in the test with NCI-H23 lung was above 100 µM throughout. The TGI in the test with MOLT-4 leukemia was above 100 µM.

Values taken from PubChem BioAssay (NCI).
